Key:
morningglory = assay: Test C pre-/postemergence herbicide test; type: in vivo, Ipomoea coccinea; design: key to Plant response rating, Morningglory: 0 = no effect, 100 = complete control; conditions: for Morningglory plant response rating: 500 g ai/ha
In short: (§1)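 Preemergence: seeds planted and treated with compound in non-phytotoxic solvent with surfactant; postemergence: plants at 2 to 18 cm (1- to 4-leaf stage) sprayed likewise. Kept in greenhouse 12 to 14 days, then visually rated against controls, 0 (no effect) to 100 (complete control).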

Surinam grass = assay: Test C pre-/postemergence herbicide test; type: in vivo, Urochloa decumbens; conditions: for Surinam Grass plant response rating: 500 g ai/ha
In short: as §1

corn = assay: Test C pre-/postemergence herbicide test; type: in vivo, Zea mays; conditions: for Corn plant response rating: 500 g ai/ha
In short: as §1

velvetleaf [1] = assay: Test B pre-/postemergence herbicide test; type: in vivo, Abutilon theophrasti; conditions: for Velvetleaf plant response rating: postemergence, visual rating
In short: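 Greenhouse pot assay with simultaneous preemergence (treated seed) and postemergence (2–18 cm seedlings) applications of surfactant-containing, non-phytotoxic solvent formulations. Response scored visually 13–15 days later on a 0–100 scale, 100 meaning complete control.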

velvetleaf [2] = assay: Test C pre-/postemergence herbicide test; type: in vivo, Abutilon theophrasti; conditions: for Velvetleaf plant response rating: 500 g ai/ha
In short: as §1

large crabgrass = assay: Test A pre-/postemergence herbicide test; type: in vivo, Digitaria sanguinalis
In short: (§2)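 Sandy loam soil given preemergence directed spray; plants at 2 to 10 cm, one- to two-leaf stage, sprayed to runoff postemergence, compounds in non-phytotoxic solvent with surfactant. Injury rated visually versus untreated controls after about ten greenhouse days, 0 (no effect) to 100 (complete control); dash means not tested.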

barnyardgrass = assay: Test A pre-/postemergence herbicide test; type: in vivo, Echinochloa crus-galli
In short: as §2

kochia = assay: Test C pre-/postemergence herbicide test; type: in vivo, Kochia scoparia; conditions: for Kochia plant response rating: 500 g ai/ha
In short: as §1

[3] = 62 g ai/ha, preemergence, scale 0 to 100
[4] = 125 g ai/ha, scale 0 (no effect) to 100 (complete control), visual, 12 to 14 days, preemergence
[5] = 250 g ai/ha, scale 0-100, preemergence
[6] = Preemergence, scale 0 to 100, 0 no effect, 100 complete control
[7] = 125 g ai/ha, scale 0 (no effect) to 100 (complete control)
[8] = Postemergence, 500 g ai/ha, 0 to 100 scale, 0 no effect, 100 complete control
[9] = Postemergence, 2000 g ai/ha, 0 to 100 scale, 0 no effect, 100 complete control
[10] = Preemergence, 2000 g ai/ha, visual rating, 0 to 100 scale (0 no effect, 100 complete control)
[11] = preemergence, 500 g ai/ha, visual injury, 0 to 100 scale (0 no effect, 100 complete control)
[12] = Postemergence, 250 g ai/ha, scale 0 to 100, 0 no effect, 100 complete control
[13] = postemergence, 125 g ai/ha, scale 0 to 100
[14] = postemergence, 62 g ai/ha, scale 0 to 100
[15] = Preemergence, 500 g ai/ha, visual rating, 0 to 100 scale (0 no effect, 100 complete control)
[16] = Preemergence, 2000 g ai/ha, 0 to 100 scale, 0 no effect, 100 complete control

Structure (SMILES): CC(=NO)c1cccc(NC(=O)c2sc(C(C)(C)C)nc2C)c1 [Compound 195]
- Plant response rating, Morningglory (morningglory; [3]): 0
- Plant response rating, Morningglory (morningglory; [4]): 0
- Plant response rating, Morningglory (morningglory; [5]): 0
- Morningglory plant response rating (morningglory; [6]): 0
- Plant response rating, Surinam Grass (Surinam grass; [3]): 0
- Plant response rating, Surinam Grass (Surinam grass; [4]): 0
- Plant response rating, Surinam Grass (Surinam grass; [5]): 85
- Surinam Grass plant response rating (Surinam grass; [6]): 85
- Plant response rating, Corn (corn; [3]): 0
- Plant response rating, Corn (corn; [4]): 0
- Plant response rating, Corn (corn; [5]): 0
- Corn plant response rating (corn; [6]): 0
- Velvetleaf plant response rating (0 to 100 scale) (velvetleaf [1]; 125 g ai/ha, 0 = no effect, 100 = complete control, preemergence): 10
- Plant response rating, Velvetleaf (velvetleaf [1]; 500 g ai/ha, visual rating 0-100, 0 no effect, 100 complete control, preemergence): 20
- Velvetleaf plant response rating (velvetleaf [1]; [7]): 20
- Velvetleaf plant response rating (velvetleaf [1]; 500 g ai/ha, scale 0 (no effect) to 100 (complete control)): 40
- Plant response rating, Velvetleaf (velvetleaf [2]; [3]): 0
- Plant response rating, Velvetleaf (velvetleaf [2]; [4]): 50
- Plant response rating, Velvetleaf (velvetleaf [2]; [5]): 55
- Velvetleaf plant response rating (velvetleaf [2]; [6]): 100
- Crabgrass, Large plant response rating (large crabgrass; [8]): 10
- Plant response rating, Crabgrass, Large (large crabgrass; [9]): 25
- Crabgrass, Large plant response rating (large crabgrass; [10]): 95
- Crabgrass, Large plant response rating (large crabgrass; [11]): 75
- Barnyardgrass plant response rating (barnyardgrass; [8]): 15
- Plant response rating, Barnyardgrass (barnyardgrass; [9]): 50
- Barnyardgrass plant response rating (barnyardgrass; [10]): 45
- Barnyardgrass plant response rating (barnyardgrass; [11]): 20
- Plant response rating, Kochia (kochia; [3]): 0
- Plant response rating, Kochia (kochia; [4]): 0
- Plant response rating, Kochia (kochia; [5]): 10
- Kochia plant response rating (kochia; [6]): 85

Structure (SMILES): CCCCOC(=O)c1cccc(NC(=O)c2cc(C(C)(C)C)nn2CC)c1 [Compound 86]
- Morningglory plant response rating (morningglory; Postemergence, scale 0 to 100): 85
- Plant response rating, Morningglory (morningglory; [12]): 85
- Plant response rating, Morningglory (morningglory; [13]): 75
- Plant response rating, Morningglory (morningglory; [14]): 10
- Surinam Grass plant response rating (Surinam grass; Postemergence, scale 0 to 100): 85
- Plant response rating, Surinam Grass (Surinam grass; [12]): 70
- Plant response rating, Surinam Grass (Surinam grass; [13]): 60
- Plant response rating, Surinam Grass (Surinam grass; [14]): 10
- Corn plant response rating (corn; Postemergence, scale 0 to 100): 30
- Plant response rating, Corn (corn; [12]): 20
- Plant response rating, Corn (corn; [13]): 20
- Plant response rating, Corn (corn; [14]): 15
- Plant response rating, Velvetleaf (velvetleaf [1]; Postemergence, 500 g ai/ha, visual rating after 13 to 15 days, scale 0 (no effect) to 100 (complete control)): 70
- Velvetleaf plant response rating (velvetleaf [1]; [7]): 60
- Plant response rating, Velvetleaf (velvetleaf [1]; preemergence, 125 g ai/ha, 0 to 100 scale, 0 is no effect, 100 is complete control): 0
- Velvetleaf plant response rating (velvetleaf [2]; Postemergence, scale 0 to 100): 85
- Plant response rating, Velvetleaf (velvetleaf [2]; [12]): 80
- Plant response rating, Velvetleaf (velvetleaf [2]; [13]): 60
- Plant response rating, Velvetleaf (velvetleaf [2]; [14]): 40
- Crabgrass, Large plant response rating (large crabgrass; [8]): 20
- Plant response rating, Crabgrass, Large (large crabgrass; [9]): 25
- Crabgrass, Large plant response rating (large crabgrass; [15]): 0
- Crabgrass, Large plant response rating (large crabgrass; [16]): 0
- Barnyardgrass plant response rating (barnyardgrass; [8]): 20
- Plant response rating, Barnyardgrass (barnyardgrass; [9]): 20
- Barnyardgrass plant response rating (barnyardgrass; [15]): 0
- Barnyardgrass plant response rating (barnyardgrass; [16]): 0
- Kochia plant response rating (kochia; Postemergence, scale 0 to 100): 95
- Plant response rating, Kochia (kochia; [12]): 95
- Plant response rating, Kochia (kochia; [13]): 85
- Plant response rating, Kochia (kochia; [14]): 80
